This note sets out measurements from US7838498B2, “Benzylic glycoside derivatives and methods of use” (Theracos, Inc., priority 2007, dated 2010).

In one assay the target is T1, human SGLT1 (Homo sapiens, UniProt P13866).
T1 construct: Full-length human SGLT1 cDNA on pDream2.1 expression vector was obtained from GenScript Corporation; host or cells: COS-7 cells (American Type Culture Collection)
T1 sequence (P13866 1-664): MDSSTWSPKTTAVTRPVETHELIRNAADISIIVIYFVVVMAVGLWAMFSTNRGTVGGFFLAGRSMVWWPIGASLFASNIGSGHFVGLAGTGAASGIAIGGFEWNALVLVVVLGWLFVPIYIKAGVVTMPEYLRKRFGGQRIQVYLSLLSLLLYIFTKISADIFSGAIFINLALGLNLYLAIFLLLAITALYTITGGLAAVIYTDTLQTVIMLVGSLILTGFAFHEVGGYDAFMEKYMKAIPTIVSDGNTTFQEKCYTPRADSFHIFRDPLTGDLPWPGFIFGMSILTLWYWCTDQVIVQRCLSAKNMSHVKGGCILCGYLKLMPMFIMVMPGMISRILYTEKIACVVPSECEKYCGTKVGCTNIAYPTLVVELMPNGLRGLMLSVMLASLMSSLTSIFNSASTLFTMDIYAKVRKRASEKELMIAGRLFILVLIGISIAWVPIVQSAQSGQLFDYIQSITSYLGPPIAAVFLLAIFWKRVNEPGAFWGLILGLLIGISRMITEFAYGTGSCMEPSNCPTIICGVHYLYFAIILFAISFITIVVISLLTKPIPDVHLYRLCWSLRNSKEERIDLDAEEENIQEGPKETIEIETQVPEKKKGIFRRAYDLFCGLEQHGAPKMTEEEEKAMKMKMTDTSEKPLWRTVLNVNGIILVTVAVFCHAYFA
Kind of assay: Methyl-α-D-[U-14C]glucopyranoside uptake assay, COS-7 cells expressing human SGLT1. Type of assay: cell-based. The following applies: COS-7 cells expressing human SGLT1, 2 h incubation.

For another assay, the target named is T2, human SGLT2 (Homo sapiens, UniProt P31639).
T2 construct: A full-length cDNA clone expressing human SGLT2 (GenScript Corporation) was subcloned
T2 sequence (P31639 1-672): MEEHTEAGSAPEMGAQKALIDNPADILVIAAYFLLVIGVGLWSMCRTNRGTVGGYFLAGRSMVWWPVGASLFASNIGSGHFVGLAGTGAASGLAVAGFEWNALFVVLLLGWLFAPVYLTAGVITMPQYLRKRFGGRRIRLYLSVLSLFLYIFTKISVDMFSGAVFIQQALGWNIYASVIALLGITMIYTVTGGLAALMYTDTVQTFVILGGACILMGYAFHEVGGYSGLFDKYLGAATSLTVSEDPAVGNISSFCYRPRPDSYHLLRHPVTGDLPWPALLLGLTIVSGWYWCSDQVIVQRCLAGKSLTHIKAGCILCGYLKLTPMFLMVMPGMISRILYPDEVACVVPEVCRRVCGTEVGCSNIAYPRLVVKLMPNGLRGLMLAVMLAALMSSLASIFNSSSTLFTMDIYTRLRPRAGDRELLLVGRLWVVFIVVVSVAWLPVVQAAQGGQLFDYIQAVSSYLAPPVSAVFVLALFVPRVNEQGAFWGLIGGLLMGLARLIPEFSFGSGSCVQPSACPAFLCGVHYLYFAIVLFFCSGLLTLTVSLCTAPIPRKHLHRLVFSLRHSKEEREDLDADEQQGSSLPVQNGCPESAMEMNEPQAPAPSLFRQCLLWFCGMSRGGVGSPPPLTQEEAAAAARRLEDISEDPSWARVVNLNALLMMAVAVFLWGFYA
Kind of assay: Methyl-α-D-[U-14C]glucopyranoside uptake assay, cells stably expressing human SGLT2. The following applies: HEK293.ETN cells expressing human SGLT2, 1.5 h incubation. It counts as cell-based.

Where [1] appears, read: without human serum (symbols without parentheses).
The mark [2] stands for this setting: with 25% human serum (symbols in parentheses).

Each structure is given as a SMILES string.

In the case of `CCc1ccc(Cc2cc([C@@H]3O[C@H](CO)[C@@H](O)[C@H](O)[C@H]3O)c(COCC(O)CO)cc2Cl)cc1` (stereo partly drawn) [Compound L, (2S,3R,4R,5S,6R)-2-(4-chloro-2-((2,3-dihydroxypropoxy)methyl)-5-(4-ethylbenzyl)phenyl)-6-(hydroxymethyl)tetrahydro-2H-pyran-3,4,5-triol], the half-maximal inhibitory concentration (IC50) (in general, the concentration needed to halve the response being measured) on human SGLT1 (setting [1]) is more than 10 µM; on human SGLT2 (setting [1]) it was less than 1 µM.
For `CCc1ccc(Cc2cc([C@@H]3O[C@H](CO)[C@@H](O)[C@H](O)[C@H]3O)c(COCCO)cc2Cl)cc1` [Compound O, (2S,3R,4R,5S,6R)-2-(4-chloro-5-(4-ethylbenzyl)-2-((2-hydroxyethoxy)methyl)phenyl)-6-(hydroxymethyl)tetrahydro-2H-pyran-3,4,5-triol], in that order: 1 to 10 µM and less than 1 µM.
For the compound `CC#CCOCCOc1cc(Cl)c(Cc2ccc(CC)cc2)cc1[C@@H]1O[C@H](CO)[C@@H](O)[C@H](O)[C@H]1O` [Compound BF, (2S,3R,4R,5S,6R)-2-(2-(2-(but-2-ynyloxy)ethoxy)-4-chloro-5-(4-ethylbenzyl)phenyl)-6-(hydroxymethyl)tetrahydro-2H-pyran-3,4,5-triol], the concentration for half-maximal inhibition (IC50) on human SGLT1 (setting [2]) is more than 10 µM; on human SGLT2 (setting [2]), less than 1 µM.
